pIC50: −log10 of the molar value.
How the values were obtained:
[1] = target: PI3Kα (Homo sapiens (Human), UniProt P42336); assay: Biochemical evaluation of activity of PI3Kα (Kinase-Glo luminescence kinase assay); conditions: 25 μM ATP, 50 μM PIP2, 1 h at room temperature
Experimental: The potency of compounds in the present intention against PI3Kα was assessed by in vitro kinase assay. The kinase activity of PI3Kα was determined by detecting the level of ADP produced in the kinase reaction with luciferase-based luminescence detection.
The Kinase-Glo™ Kinase Assay Kit was purchased from Promega. All assays were performed at room temperature using white OptiPlate™-384 well plate. The PI3Kα kinase was purchased from Invitrogen. The substrate was PIP2 from Invitrogen. The kinase buffer contained 50 mM Hepes (pH 7.5), 3 mM MgCl2, 100 mM NaCl, 1 mM EGTA, 0.03% CHAPS and 2 mM DTT. […] The substrate solution contained 100 μM PIP2 and 50 μM ATP. The test compound was diluted to 10 mM in 100% DMSO and serially diluted three times into ten different concentrations in 100% DMSO. The compound diluted in 100% DMSO was diluted 25-fold in 1×kinase buffer. 2.5 μL of the diluted compound solution and 2.5 μL PI3Kα kinase solution were added to each well of a 384-well plate. The reaction was initiated by addition of 5 μL substrate solution to each well. […] The plate was then covered and the reaction was allowed to proceed for one hour at room temperature, followed by the addition of 10 μL Kinase-Glo™ reagent to each well to stop the reaction.
The percentage of inhibition was calculated as follows: Inhibition %=100−(max−sample RLU)/(max−min)*100
wherein sample RLU was the luminescence reading for a given compound concentration, min was the reading of DMSO control, and max was the reading of the enzyme-free control. The IC50 value was calculated with the XLfit program in Excel.

[2] = test system: human lung cancer cell NCI-H460; assay: Tumor cell viability by MTT assay; format: cell-based; conditions: Homo sapiens, NCI-H460, 96 h
Experimental: After 24 hours, 100 μL of fresh medium containing different concentrations of test compounds and the corresponding solvent control was added into each well to a final concentration of DMSO less than 0.2%. Six to nine concentration groups were set for each test compound, and three parallel wells were set for each group. The plate was incubated at 5% CO2, 37° C. for 96 hours. 20 μL of freshly prepared PBS solution containing 5 mg/mL MTT was added to each well. The supernatant was discarded after incubation for another 4 hours. 150 μL DMSO was added to each well to dissolve the MTT formazan precipitate. After being mixed by a micro-oscillator, the optical density (OD) was measured at the wavelength of 570 nm, and the tumor cells treated with DMSO were used as a control group.

PI3Kα, sequence (P42336 whole entry): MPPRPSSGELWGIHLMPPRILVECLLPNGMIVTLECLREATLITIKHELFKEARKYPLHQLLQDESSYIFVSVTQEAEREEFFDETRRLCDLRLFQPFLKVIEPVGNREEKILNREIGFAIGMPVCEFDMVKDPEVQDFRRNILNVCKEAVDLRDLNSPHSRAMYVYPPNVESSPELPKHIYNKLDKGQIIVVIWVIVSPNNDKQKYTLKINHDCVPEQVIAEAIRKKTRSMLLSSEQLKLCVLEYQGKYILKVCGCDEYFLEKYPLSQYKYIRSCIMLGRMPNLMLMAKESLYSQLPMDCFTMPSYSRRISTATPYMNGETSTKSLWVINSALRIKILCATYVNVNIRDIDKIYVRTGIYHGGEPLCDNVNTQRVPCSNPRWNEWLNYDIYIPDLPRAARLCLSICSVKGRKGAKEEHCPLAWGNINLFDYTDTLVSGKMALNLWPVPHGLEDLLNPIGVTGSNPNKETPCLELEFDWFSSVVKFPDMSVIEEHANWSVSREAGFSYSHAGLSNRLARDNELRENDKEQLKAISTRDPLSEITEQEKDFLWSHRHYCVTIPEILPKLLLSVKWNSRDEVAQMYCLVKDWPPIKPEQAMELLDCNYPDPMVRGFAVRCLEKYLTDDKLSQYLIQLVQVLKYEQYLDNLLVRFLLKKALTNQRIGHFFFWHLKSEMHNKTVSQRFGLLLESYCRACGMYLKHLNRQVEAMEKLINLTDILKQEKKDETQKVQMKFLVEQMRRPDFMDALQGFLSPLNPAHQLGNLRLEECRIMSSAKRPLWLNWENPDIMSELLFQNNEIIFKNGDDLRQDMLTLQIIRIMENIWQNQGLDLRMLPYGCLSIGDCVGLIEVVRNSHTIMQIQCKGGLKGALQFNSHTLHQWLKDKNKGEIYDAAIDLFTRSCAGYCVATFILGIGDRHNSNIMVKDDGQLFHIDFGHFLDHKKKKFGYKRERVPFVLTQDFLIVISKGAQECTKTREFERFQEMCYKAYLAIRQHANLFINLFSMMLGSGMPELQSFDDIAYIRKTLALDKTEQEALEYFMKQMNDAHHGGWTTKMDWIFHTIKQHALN
PI3Kα, sequence (P27986 whole entry partner): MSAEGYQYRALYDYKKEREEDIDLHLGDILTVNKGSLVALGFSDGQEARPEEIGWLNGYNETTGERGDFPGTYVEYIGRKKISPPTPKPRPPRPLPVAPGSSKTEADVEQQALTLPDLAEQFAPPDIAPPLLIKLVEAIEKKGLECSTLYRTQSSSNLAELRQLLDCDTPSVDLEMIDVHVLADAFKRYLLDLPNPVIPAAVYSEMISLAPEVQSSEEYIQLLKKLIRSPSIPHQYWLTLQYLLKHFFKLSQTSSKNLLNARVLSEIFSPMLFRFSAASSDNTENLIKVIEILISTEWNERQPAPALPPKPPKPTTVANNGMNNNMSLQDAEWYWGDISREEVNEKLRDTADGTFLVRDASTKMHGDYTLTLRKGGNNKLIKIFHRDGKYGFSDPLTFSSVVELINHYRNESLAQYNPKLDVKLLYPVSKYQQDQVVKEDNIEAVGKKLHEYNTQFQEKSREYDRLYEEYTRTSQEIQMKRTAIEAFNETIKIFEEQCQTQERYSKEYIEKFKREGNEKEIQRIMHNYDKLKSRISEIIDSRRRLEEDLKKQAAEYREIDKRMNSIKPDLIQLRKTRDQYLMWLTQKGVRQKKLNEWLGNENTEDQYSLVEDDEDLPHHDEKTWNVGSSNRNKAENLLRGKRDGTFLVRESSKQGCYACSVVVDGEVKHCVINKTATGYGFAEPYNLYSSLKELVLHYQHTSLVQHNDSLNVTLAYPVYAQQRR

SMILES	pIC50 [1]	pIC50 [2]
COc1ncc(-c2cc(OC3CCC(F)(F)CC3)c3ncnc(C)c3c2)cc1NS(=O)(=O)c1ccc(F)cc1F [Example 57, N-(5-(8-((4,4-difluorocyclohexyl)oxy)-4-methylquinazolin-6-yl)-2-methoxypyridin-3-yl)-2,4-difluorobenzenesulfonamide]	8.77	6.35
COc1ncc(-c2cc(OC(C)C)c3ncnc(C)c3c2)cc1NS(=O)(=O)c1ccc(F)cc1F [Example 69, N-(5-(8-isopropoxy-4-methylquinazolin-6-yl)-2-methoxypyridin-3-yl)-2,4-difluorobenzenesulfonamide]	8.66	7.30
COc1ncc(-c2cc(OCCN3CCCC3)c3ncnc(C)c3c2)cc1NS(=O)(=O)c1ccc(F)cc1F [Example 63, N-(2-methoxy-5-(4-methyl-8-(2-(pyrrolidin-1-yl)ethoxy)quinazolin-6-yl)pyridin-3-yl)-2,4-difluorobenzenesulfonamide]	8.00	5.68
COc1ncc(-c2cc(O[C@H]3CCOC3)c3ncnc(C)c3c2)cc1NS(=O)(=O)c1ccc(F)cc1F [Example 51, (S)—N-(2-methoxy-5-(4-methyl-8-((tetrahydrofuran-3-yl)oxy)quinazolin-6-yl)pyridin-3-yl)-2,4-difluorobenzenesulfonamide]	9.14	7.49
COc1ncc(-c2cc(OCC3CCCO3)c3ncnc(C)c3c2)cc1NS(=O)(=O)c1ccc(F)cc1F (centres unmarked) [Example 60, N-(2-methoxy-5-(4-methyl-8-((tetrahydrofuran-2-yl)methoxy)quinazolin-6-yl)pyridin-3-yl)-2,4-difluorobenzenesulfonamide]	8.89	6.62
CNc1nc(C)c2cc(-c3cnc(OC)c(NS(=O)(=O)c4ccc(F)cc4F)c3)cc(OC3CCOCC3)c2n1 [Example 29, N-(2-methoxy-5-(4-methyl-2-(methylamino)-8-((tetrahydro-2H-pyran-4-yl)oxy)quinazolin-6-yl)pyridin-3-yl)-2,4-difluorobenzenesulfonamide]	8.96	7.23
COc1ncc(-c2cc(OCC3CCOC3)c3ncnc(C)c3c2)cc1NS(=O)(=O)c1ccc(F)cc1F (centres unmarked) [Example 61, N-(2-methoxy-5-(4-methyl-8-((tetrahydrofuran-3-yl)methoxy)quinazolin-6-yl)pyridin-3-yl)-2,4-difluorobenzenesulfonamide]	9.00	7.35
COc1ncc(-c2cc(O[C@H]3CCOC3)c3ncnc(C)c3c2)cc1NS(C)(=O)=O [Example 52, (S)—N-(2-methoxy-5-(4-methyl-8-((tetrahydrofuran-3-yl)oxy)quinazolin-6-yl)pyridin-3-yl)methanesulfonamide]	8.68	6.17
CNc1nc(C)c2cc(-c3cnc(OC)c(NS(=O)(=O)c4ccc(Cl)s4)c3)cc(O[C@@H]3CCOC3)c2n1 [Example 34, (R)—N-(2-methoxy-5-(4-methyl-2-(methylamino)-8-((tetrahydrofuran-3-yl)oxy)quinazolin-6-yl)pyridin-3-yl)-5-chlorothiophene-2-sulfonamide]	8.80	6.96
COc1ncc(-c2cc(OCCN3CCOCC3)c3nc(N)nc(C)c3c2)cc1NS(=O)(=O)c1ccc(F)cc1F [Example 16, N-(5-(2-amino-4-methyl-8-(2-morpholinoethoxy)quinazolin-6-yl)-2-methoxypyridin-3-yl)-2,4-difluorobenzenesulfonamide]	8.39	5.96
COc1ncc(-c2cc(OC3CCCCC3)c3ncnc(C)c3c2)cc1NS(=O)(=O)c1ccc(F)cc1F [Example 55, N-(5-(8-(cyclohexyloxy)-4-methylquinazolin-6-yl)-2-methoxypyridin-3-yl)-2,4-difluorobenzenesulfonamide]	8.77	7.01
COc1ncc(-c2cc(OCCn3cccn3)c3ncnc(C)c3c2)cc1NS(=O)(=O)c1ccc(F)cc1F [Example 64, N-(5-(8-(2-(1H-pyrazol-1-yl)ethoxy)-4-methylquinazolin-6-yl)-2-methoxypyridin-3-yl)-2,4-difluorobenzenesulfonamide]	8.82	6.41
COc1ncc(-c2cc(OC)c3nc(N)nc(C)c3c2)cc1NS(=O)(=O)c1ccc(F)cc1F [Example 28, N-(5-(2-amino-8-methoxy-4-methylquinazolin-6-yl)-2-methoxypyridin-3-yl)-2,4-difluorobenzenesulfonamide]	8.92	6.55
COc1ncc(-c2cc(OC3CCN(C)CC3)c3ncnc(C)c3c2)cc1NS(=O)(=O)c1ccc(F)cc1F [Example 62, N-(2-methoxy-5-(4-methyl-8-((1-methylpiperidin-4-yl)oxy)quinazolin-6-yl)pyridin-3-yl)-2,4-difluoro-benzenesulfonamide]	8.60	6.59
COc1ncc(-c2cc(OCC3CCOCC3)c3nc(N)nc(C)c3c2)cc1NS(C)(=O)=O [Example 14, N-(5-(2-amino-4-methyl-8-((tetrahydro-2H-pyran-4-yl)methoxy)quinazolin-6-yl)-2-methoxypyridin-3-yl)methanesulfonamide]	8.48	5.70
COc1ncc(-c2cc(OCC3CC3)c3ncnc(C)c3c2)cc1NS(=O)(=O)c1ccc(F)cc1F [Example 68, N-(5-(8-(cyclopropylmethoxy)-4-methylquinazolin-6-yl)-2-methoxypyridin-3-yl)-2,4-difluorobenzenesulfonamide]	8.80	6.47
Cc1ncnc2c(OC3CCOCC3)cc(-c3cnc(Cl)c(NS(=O)(=O)c4ccc(F)cc4)c3)cc12 [Example 73, N-(2-chloro-5-(4-methyl-8-((tetrahydro-2H-pyran-4-yl)oxy)quinazolin-6-yl)pyridin-3-yl)-4-fluorobenzenesulfonamide]	8.89	6.13
Cc1ncc(-c2cc(OC3CCOCC3)c3ncnc(C)c3c2)cc1NS(=O)(=O)c1ccc(F)cc1F [Example 74, N-(2-methyl-5-(4-methyl-8-((tetrahydro-2H-pyran-4-yl)oxy)quinazolin-6-yl)pyridin-3-yl)-2,4-difluorobenzenesulfonamide]	8.96	6.06
Cc1ncc(-c2cc(OC3CCOCC3)c3nc(N)nc(C)c3c2)cc1NS(=O)(=O)c1ccc(F)cc1F [Example 7, N-(5-(2-amino-4-methyl-8-((tetrahydro-2H-pyran-4-yl)oxy)quinazolin-6-yl)-2-methylpyridin-3-yl)-2,4-difluorobenzenesulfonamide]	8.96	5.68
COc1ncc(-c2cc(O[C@@H]3CCOC3)c3nc(N)nc(C)c3c2)cc1NS(C)(=O)=O [Example 10, (R)—N-(5-(2-amino-4-methyl-8-((tetrahydrofuran-3-yl)oxy)quinazolin-6-yl)-2-methoxypyridin-3-yl)methanesulfonamide]	8.42	5.66
COc1ncc(-c2cc(OC3CCOCC3)c3ncnc(C)c3c2)cc1NS(=O)(=O)c1ccc(F)cc1Cl [Example 45, N-(2-methoxy-5-(4-methyl-8-((tetrahydro-2H-pyran-4-yl)oxy)quinazolin-6-yl)pyridin-3-yl)-2-chloro-4-fluorobenzenesulfonamide]	9.04	7.35
COc1ncc(-c2cc(O[C@@H]3CCOC3)c3ncnc(C)c3c2)cc1NS(=O)(=O)c1ccc(F)cc1F [Example 49, (R)—N-(2-methoxy-5-(4-methyl-8-((tetrahydrofuran-3-yl)oxy)quinazolin-6-yl)pyridin-3-yl)-2,4-difluorobenzenesulfonamide]	9.12	7.47
COc1ncc(-c2cc(OC3CCOCC3)c3nc(NC(C)=O)nc(C)c3c2)cc1NS(C)(=O)=O [Example 43, N-(6-(6-methoxy-5-(methylsulfonamido)pyridin-3-yl)-4-methyl-8-((tetrahydro-2H-pyran-4-yl)oxy)quinazolin-2-yl)acetamide]	8.00	5.40
COc1ncc(-c2cc(OC3CCOCC3)c3ncnc(C)c3c2)cc1NS(=O)(=O)C1CC1 [Example 48, N-(2-methoxy-5-(4-methyl-8-((tetrahydro-2H-pyran-4-yl)oxy)quinazolin-6-yl)pyridin-3-yl)cyclopropanesulfonamide]	8.68	6.55
COc1ncc(-c2cc(OC3CCCCC3)c3nc(N)nc(C)c3c2)cc1NS(=O)(=O)c1ccc(F)cc1F [Example 22, N-(5-(2-amino-8-(cyclohexyloxy)-4-methylquinazolin-6-yl)-2-methoxypyridin-3-yl)-2,4-difluorobenzenesulfonamide]	9.22	7.02

Source: US11534443B2, “Quinazoline compounds, preparation method, use, and pharmaceutical composition thereof” (INSTITUTE OF MATERIA MEDICA, CHINESE ACADEMY OF MEDICAL …, priority 2016, dated 2022)
